This is an account of results in ChEMBL document CHEMBL1201862, “PubChem BioAssay data set” (2004).

Molecules are shown by their SMILES. Active and inactive are the calls of the source.

Assay [1] has as its target Disintegrin and metalloproteinase domain-containing protein 17 (Homo sapiens, UniProt P78536). The assay can be described thus: exosite inhibitors of ADAM17, dose response, biochemical (AID 743260).
A short description of assay [2]: inhibition of ADAM10 peptide cleavage – biochemical, FRET peptide substrate, recombinant human ADAM10, selectivity assay for ADAM17 exosite inhibitor project, dose response (AID 743259).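 Further: ADAM10 enzyme cleaving a FRET peptide substrate.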
A short description of assay [3]: HGIII-sPLA2 enzyme inhibition potency – biochemical, QFRET, IC50, dose response (AID 743457).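 Further: green fluorescence rise as the enzyme cleaves BODIPY PC-A2 in liposomes.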
Assay [4] can be described thus: Luminescence-based cell-based high throughput dose response assay to identify activators of the DAF-12 from the parasite S. stercoralis (ssDAF-12). The assay is classed as functional.
Assay [5] addresses T1, Oxysterols receptor LXR-beta (Homo sapiens, UniProt P55055).
T1 sequence (P55055 whole entry): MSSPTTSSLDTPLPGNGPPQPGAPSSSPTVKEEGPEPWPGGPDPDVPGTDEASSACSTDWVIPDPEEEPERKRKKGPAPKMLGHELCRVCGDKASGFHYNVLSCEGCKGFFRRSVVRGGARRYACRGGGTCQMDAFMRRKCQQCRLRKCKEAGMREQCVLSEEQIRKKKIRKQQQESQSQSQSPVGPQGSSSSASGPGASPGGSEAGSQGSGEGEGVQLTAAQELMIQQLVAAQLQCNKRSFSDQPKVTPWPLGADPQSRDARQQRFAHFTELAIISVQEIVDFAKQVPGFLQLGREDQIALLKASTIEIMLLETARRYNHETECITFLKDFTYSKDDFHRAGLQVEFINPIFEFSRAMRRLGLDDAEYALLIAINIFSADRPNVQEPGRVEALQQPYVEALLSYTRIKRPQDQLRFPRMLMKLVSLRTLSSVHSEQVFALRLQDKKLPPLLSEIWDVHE
The assay can be described thus: LXR agonists, Gal4 luciferase reporter, dose response, counter-screen for ssDAF-12 agonist project, cell-based, luminescence, HEK293, S. stercoralis campaign (AID 720737). Format: functional. Conditions: read-out: IC50 (the source's name). A general note: A reporter such as luciferase makes a cellular process visible.

Assay [6] addresses T1, Oxysterols receptor LXR-beta. Format: functional, cell-based.
A short description of assay [7]: cells.
Assay [8] relates to Streptococcus sp. 'group A'. The assay can be described thus: Streptococcus pyogenes SK(-)GAS viability under kanamycin – luminescence, BacTiterGlo, confirmation, counter-screen for streptokinase expression inhibitor project, dose response (AID 1900). The assay is classed as functional, organism-based. Background: The purpose of a counterscreen is to sort out artefacts and off-target activity.

The target in assay [9] is T2, Streptokinase A (Streptococcus pyogenes serotype M1, UniProt P10520).
T2 sequence (P10520 whole entry): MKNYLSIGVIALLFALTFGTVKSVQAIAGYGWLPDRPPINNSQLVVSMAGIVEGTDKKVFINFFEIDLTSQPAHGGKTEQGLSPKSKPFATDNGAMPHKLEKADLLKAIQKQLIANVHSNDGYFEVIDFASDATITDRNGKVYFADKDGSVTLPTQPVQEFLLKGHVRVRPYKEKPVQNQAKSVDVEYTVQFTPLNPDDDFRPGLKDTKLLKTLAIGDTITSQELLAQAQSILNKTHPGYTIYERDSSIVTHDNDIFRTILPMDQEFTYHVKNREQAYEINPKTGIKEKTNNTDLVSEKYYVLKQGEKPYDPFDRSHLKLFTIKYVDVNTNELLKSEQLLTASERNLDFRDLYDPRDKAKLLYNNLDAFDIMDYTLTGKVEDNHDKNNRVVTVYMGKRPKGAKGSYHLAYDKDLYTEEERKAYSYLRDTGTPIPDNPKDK
The assay can be described thus: viability-normalized secreted streptokinase activity reduction – plasminogen activation absorbance, OD405, dose response (AID 1914).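 Further: secreted streptokinase activity via plasminogen activation per viability signal from cell pellet.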 The assay is classed as functional, Streptococcus pyogenes M1 GAS.

Assay [10] relates to Streptococcus. The assay can be described thus: GAS UMAA2166 growth inhibition – luminescence, BacTiterGlo, counter-screen for streptokinase expression inhibitor project, dose response (AID 1915).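 Further: potency for reduction of bacterial viability or growth.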 Format: functional, organism-based.
In assay [11] the target is T3, Caspase-6 (Homo sapiens, UniProt P55212).
T3 sequence (P55212 whole entry): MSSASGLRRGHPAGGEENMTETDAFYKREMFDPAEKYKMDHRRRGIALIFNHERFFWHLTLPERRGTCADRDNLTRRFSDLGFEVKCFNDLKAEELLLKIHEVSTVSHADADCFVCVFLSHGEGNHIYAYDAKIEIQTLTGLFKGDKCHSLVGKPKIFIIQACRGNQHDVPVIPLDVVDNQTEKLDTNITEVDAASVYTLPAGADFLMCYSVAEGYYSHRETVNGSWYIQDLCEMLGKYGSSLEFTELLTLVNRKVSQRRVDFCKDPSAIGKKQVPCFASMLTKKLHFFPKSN
The assay can be described thus: inhibition of CASP6 peptide cleavage – biochemical, VEID-R110 fluorescence, cherry-pick, dose response (AID 720632).

Assay [12] has as its target T4, Caspase-3 (Homo sapiens, UniProt P42574).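 Further: Dose-response selectivity test against caspase-3 for candidate inhibitors of sentrin-specific proteases (SENPs).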
T4 sequence (P42574 whole entry): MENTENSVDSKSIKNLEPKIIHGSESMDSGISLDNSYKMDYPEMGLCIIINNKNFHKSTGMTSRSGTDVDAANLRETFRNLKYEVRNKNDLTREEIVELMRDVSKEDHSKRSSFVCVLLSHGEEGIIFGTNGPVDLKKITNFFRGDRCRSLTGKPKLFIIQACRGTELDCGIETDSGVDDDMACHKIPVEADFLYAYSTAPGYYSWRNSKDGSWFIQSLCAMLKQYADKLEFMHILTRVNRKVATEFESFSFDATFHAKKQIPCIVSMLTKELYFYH
The assay is classed as functional.

The target of assay [13] is T5, Sentrin-specific protease 7 (Homo sapiens, UniProt Q9BQF6).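 Further: Luminescence-based dose-response confirmation of ultra-high-throughput screening hits, measuring inhibition of SENP7.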
T5 sequence (Q9BQF6 whole entry): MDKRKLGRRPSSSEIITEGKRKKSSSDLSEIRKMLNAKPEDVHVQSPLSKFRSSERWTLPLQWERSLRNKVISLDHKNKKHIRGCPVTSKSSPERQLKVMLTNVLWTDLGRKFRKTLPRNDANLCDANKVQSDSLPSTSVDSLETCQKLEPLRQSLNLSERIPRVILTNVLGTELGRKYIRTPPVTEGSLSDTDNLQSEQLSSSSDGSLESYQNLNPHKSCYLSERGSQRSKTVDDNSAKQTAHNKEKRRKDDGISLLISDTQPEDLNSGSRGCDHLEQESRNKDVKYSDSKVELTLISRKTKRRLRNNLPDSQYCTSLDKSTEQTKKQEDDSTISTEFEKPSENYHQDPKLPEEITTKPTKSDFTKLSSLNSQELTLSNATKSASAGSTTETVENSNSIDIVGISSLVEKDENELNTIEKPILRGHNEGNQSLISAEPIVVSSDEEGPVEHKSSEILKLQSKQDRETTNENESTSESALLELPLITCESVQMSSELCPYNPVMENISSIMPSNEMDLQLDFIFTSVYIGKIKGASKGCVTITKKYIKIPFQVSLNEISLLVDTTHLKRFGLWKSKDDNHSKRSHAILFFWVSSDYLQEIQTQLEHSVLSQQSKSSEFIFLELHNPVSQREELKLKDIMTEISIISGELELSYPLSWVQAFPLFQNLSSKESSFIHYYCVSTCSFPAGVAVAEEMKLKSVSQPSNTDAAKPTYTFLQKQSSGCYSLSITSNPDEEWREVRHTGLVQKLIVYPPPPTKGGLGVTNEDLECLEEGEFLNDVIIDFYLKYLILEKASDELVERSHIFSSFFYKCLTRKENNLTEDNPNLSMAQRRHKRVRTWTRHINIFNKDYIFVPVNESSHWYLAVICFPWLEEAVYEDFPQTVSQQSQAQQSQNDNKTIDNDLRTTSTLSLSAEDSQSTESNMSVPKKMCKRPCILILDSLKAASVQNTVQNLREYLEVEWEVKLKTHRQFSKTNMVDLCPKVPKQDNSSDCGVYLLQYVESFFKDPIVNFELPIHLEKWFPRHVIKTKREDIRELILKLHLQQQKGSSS
The assay is classed as functional.

Assay [14] concerns the target T6, Sentrin-specific protease 6 (Homo sapiens, UniProt Q9GZR1).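 Further: Luminescence-based dose-response confirmatory assay of SENP6 inhibition, following up an ultra-high-throughput screen.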
T6 sequence (Q9GZR1 whole entry): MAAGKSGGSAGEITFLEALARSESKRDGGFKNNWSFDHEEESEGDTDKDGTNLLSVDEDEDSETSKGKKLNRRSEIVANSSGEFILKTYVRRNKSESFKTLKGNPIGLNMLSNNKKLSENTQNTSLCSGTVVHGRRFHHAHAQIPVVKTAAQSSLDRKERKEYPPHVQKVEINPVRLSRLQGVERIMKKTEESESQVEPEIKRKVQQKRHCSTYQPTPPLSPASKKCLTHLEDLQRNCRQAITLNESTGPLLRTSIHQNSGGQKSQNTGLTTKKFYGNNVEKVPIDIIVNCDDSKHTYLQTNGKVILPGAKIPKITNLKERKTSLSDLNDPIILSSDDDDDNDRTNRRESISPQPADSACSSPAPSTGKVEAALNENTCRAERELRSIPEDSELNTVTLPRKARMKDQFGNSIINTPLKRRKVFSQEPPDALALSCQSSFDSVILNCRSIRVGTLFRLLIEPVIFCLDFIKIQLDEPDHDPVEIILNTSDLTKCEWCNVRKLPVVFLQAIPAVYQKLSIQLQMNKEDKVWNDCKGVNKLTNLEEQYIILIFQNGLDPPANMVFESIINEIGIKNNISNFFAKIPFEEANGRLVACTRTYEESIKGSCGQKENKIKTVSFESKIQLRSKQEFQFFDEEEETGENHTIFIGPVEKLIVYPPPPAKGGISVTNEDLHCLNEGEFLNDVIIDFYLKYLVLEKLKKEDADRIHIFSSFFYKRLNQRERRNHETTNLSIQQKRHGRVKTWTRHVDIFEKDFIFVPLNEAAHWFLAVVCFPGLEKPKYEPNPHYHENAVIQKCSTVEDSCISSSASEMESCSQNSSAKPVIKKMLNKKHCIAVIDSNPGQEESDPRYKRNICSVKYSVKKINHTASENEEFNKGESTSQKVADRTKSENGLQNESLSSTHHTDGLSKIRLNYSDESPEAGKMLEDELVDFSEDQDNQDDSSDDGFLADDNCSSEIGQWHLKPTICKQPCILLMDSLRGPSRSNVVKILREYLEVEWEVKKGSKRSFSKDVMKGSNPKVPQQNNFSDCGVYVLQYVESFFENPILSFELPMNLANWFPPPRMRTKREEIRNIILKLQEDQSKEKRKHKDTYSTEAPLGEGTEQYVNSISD
Format: functional.

Assay [15] has as its target T7, Sentrin-specific protease 8 (Homo sapiens, UniProt Q96LD8).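 Further: luminescence read-out of SENP8 inhibition, dose-response confirmation following an ultra-high-throughput screen.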
T7 sequence (Q96LD8 whole entry): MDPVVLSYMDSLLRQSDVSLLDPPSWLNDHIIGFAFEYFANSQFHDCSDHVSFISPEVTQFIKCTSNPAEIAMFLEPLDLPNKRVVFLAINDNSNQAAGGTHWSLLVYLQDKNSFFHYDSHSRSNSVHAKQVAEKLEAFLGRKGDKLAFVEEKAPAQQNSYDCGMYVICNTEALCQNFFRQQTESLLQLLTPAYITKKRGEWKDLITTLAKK
Format: functional.

Assay [16] can be described thus: cells. The assay is classed as functional, cell-based.
The nature of assay [17]: cells. Format: functional, cell-based. The source holds these as a separate data set.
Assay [18] in a line: A549 cell cytotoxicity, dose response, cytotoxicity control, plate reader, cherry-pick, antagonist series (AID 743412). Format: functional, cell-based.
Assay [19] is described as follows: blockers of bursicon-stimulated LGR2 cAMP reporter – cell-based, HEK293, CRE-luciferase reporter, cherry pick, set 2, dose response (AID 743343).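 Further: transfected cells were stimulated with diluted bursicon conditioned medium after compound addition.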 Format: functional.
Assay [20] in a line: blockade of melanocortin 4 receptor signaling – cell-based, plate reader, cherry pick, counter-screen for LGR2 antagonist project, dose response (AID 743444).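 Further: transfected HEK 293 cells stimulated with alpha-MSH peptide; potency of inhibitors of the alpha-MSH evoked signal.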 The assay is classed as functional.

Disintegrin and metalloproteinase domain-containing protein 17, sequence (P78536 whole entry, the tested form may be a part): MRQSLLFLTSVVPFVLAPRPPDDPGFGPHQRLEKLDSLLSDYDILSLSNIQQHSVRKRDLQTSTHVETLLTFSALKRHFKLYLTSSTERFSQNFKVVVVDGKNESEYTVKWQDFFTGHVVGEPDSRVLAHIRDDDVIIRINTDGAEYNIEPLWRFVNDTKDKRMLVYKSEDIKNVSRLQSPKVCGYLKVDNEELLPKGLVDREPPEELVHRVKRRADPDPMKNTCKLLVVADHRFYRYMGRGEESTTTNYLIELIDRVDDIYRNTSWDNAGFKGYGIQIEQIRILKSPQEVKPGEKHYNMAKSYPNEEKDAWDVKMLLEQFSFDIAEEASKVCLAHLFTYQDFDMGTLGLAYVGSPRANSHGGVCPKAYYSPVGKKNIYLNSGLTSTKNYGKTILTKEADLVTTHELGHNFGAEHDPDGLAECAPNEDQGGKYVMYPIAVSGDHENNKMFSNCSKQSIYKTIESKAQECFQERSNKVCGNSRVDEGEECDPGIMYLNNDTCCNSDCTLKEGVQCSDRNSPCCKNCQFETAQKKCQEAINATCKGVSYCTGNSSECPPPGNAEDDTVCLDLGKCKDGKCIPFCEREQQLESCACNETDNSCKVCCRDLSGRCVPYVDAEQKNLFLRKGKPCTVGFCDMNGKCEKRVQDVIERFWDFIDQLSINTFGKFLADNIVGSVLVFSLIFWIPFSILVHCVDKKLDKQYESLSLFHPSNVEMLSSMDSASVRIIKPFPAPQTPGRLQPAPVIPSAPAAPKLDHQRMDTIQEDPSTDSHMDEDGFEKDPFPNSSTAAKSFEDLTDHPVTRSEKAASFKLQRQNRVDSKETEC

On to `CC(C)(C)[S+]([O-])N1Cc2cc(C(=O)NCC(F)(F)F)nc(-c3cccc(-c4cccc(F)c4)c3)c2[C@H]1CCO` (stereo not given in full), for which the IC50 (in general, the concentration at which inhibition is half-maximal) in assay [1] is > 69.5 µM (inactive); in [2], > 7.72 µM (active).
For `Cc1nc2ccc(S(=O)(=O)NCC(=O)NCc3ccc4c(c3)OCO4)cc2s1` the same measures were > 69.5 µM (inactive) and > 69.5 µM (inactive).
In the case of `Cc1csc(NC(=S)NC(=O)c2ccccc2)n1`, the IC50 in [3] was > 122 µM (inactive).
Turning to `CNCC(O)Cn1c2c(c3ccccc31)CCCC2` (stereo not given), in [4], the IC50 was > 67.6 µM (inactive). Further, the EC50 in [5] is > 67.6 µM (inactive).
In the case of `Nc1c(Br)cc2oc(-c3ccccc3)nc2c1Br`, the EC50 in assay [6] and in assay [7] was > 67.5 µM (inactive) each time.
With `NNC(=O)/C(=N/Nc1ccccc1)S(=O)(=O)c1ccc(Cl)cc1`, the results for the EC50 in assay [8], in assay [9] and in [10] were 6.91 µM (active), > 150 µM (not active) and > 150 µM (not active), respectively. Further, the IC50 in assay [3] is 47.3 µM (inactive).
Turning to `O=C(CN1C(=O)c2ccccc2S1(=O)=O)Nc1cc(S(=O)(=O)N2CCCCC2)ccc1Cl`, the IC50 in [1] and in [2] was > 69.5 µM (inactive) throughout.
Take `CCc1nnc(N/N=C/c2cc(C)c(C)cc2C)n1N`: the AC50 – broadly, the concentration at which the activity in the assay is half-maximal – in assay [11] is 39.8 µM (active).
`Cc1ccc(-c2cc(-c3ccccc3)no2)cc1`: the IC50 in assay [12] was 21.7 µM (active); in [13], 14.3 µM (active); in assay [14] it was 18.6 µM (active); in [15] it was 23.7 µM (active). Further, the EC50 in [6] and in assay [7] was > 67.5 µM (inactive) throughout.
For the molecule `Cc1ccc(C(=O)Nc2ccc3c(c2)OCO3)cc1`, the IC50 in assay [4] is > 67.5 µM (inactive). In addition, the EC50 in assay [5] was > 67.5 µM (inactive).
Take `COc1cc(-c2noc(C)c2/C=C/c2ccc(C(=O)O)cc2)cc(OC)c1OC`: in assay [11], the AC50 is 23.2 µM (active).
For the molecule `CC1OC(NCCc2ccccc2)C(O)C(O)C1O` (stereo not given), the IC50 in assay [16] is > 29.9 µM (inactive). In addition, the EC50 in assay [17] was > 29.9 µM (inactive).
Regarding `Cc1ccccc1-c1ccc([C@H]2[C@@H](CO)N3CCCCN(S(=O)(=O)c4ccc(F)cc4)C[C@@H]23)cc1`, the values for the AC50 in assay [18], in [19] and in [20] were 19.8 µM (active), 9.92 µM (active) and 8.3 µM (active), respectively.
